# Laboratory results: patent US20100317686A1, “N-HETEROCYCLIC-6-HETEROCYCLIC-IMIDAZO[1,2-a]PYRIDINE-2-CARBOXAMIDE DERIVATIVES, PREPARATION AND THERAPEUTIC USE THEREOF” (sanofi-aventis, priority 2008, published 2010)
# Biological target: T1, murine Nurr1 receptor (Mus musculus, UniProt Q06219)
# T1 construct: a cell line (N2A) endogenously expressing the murine Nurr1 receptor; host or cells: Neuro-2A (N2A) mouse neuroblastoma cells stably transfected with 8NBRE-luciferase
# Experiment: In vitro activity on N2A cells (Neuro-2A stably transfected with 8NBRE-luciferase reporter)
# Format: cell-based
# Conditions: N2A-8NBRE cells, 24 hours incubation with product
# Description: The activity of the compounds according to the invention was evaluated on a cell line (N2A) endogenously expressing the murine Nurr1 receptor and stably transfected with the NOT binding response element (NBRE) coupled to the luciferase reporter gene. The EC50 values are between 0.01 and 1000 nM. The tests were performed according to the procedure described hereinbelow.
# The cell line Neuro-2A is obtained from a standard commercial source (ATCC). The clone Neuro-2A was obtained from a spontaneous tumour originating from a strain of albino mice A by R. J Klebe et al. This line Neuro-2A is then stably transfected with 8NBRE-luciferase. The N2A-8NBRE cells are cultured to the point of confluence in 75 cm^2 culture flasks containing DMEM supplemented with 10% foetal calf serum, 4.5 g/L of glucose and 0.4 mg/ml of geneticin. After culturing for one week, the cells are recovered with 0.25% trypsin for 30 seconds and then resuspended in DMEM without phenol red, containing 4.5 g/L of glucose and 10% Hyclone defatted serum, and placed in white, transparent-based 96-well plates. The cells are deposited at a rate of 60 000 per well in 75 μL for 24 hours before adding the products. The products are applied in 25 μL and incubated for a further 24 hours. On the day of measurement, an equivalent volume (100 μL) of Steadylite is added to each well, and the wells are then left for 30 minutes to obtain complete lysis of the cells and maximum production of the signal. The plates are then measured in a microplate luminescence counter, after having been sealed with an adhesive film. The products are prepared in the form of a 10^−2 M stock solution, and then diluted in 100% of DMSO. Each concentration of product is prediluted in culture medium before incubation with the cells thus containing 0.625% final of DMSO.
# T1 sequence (Q06219 whole entry): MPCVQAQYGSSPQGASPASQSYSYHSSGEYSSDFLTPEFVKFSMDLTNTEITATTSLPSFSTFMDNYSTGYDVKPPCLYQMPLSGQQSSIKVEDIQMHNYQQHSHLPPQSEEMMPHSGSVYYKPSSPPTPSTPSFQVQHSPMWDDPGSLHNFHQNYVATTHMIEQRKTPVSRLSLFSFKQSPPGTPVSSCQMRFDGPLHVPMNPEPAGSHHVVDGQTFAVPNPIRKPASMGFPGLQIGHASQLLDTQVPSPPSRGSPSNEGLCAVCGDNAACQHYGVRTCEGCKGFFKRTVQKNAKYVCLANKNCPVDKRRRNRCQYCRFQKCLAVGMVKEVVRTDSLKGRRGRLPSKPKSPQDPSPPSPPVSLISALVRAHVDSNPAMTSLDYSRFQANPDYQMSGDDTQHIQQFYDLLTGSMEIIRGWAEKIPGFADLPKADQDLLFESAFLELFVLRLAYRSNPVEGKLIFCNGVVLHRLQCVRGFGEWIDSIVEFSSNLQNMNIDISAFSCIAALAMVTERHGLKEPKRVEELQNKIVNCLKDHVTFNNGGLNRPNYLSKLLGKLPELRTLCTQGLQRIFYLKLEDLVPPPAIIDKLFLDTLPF
row,EC50 [nM],Structure (SMILES)
1,16,"Nc1cccc(-c2ccc3nc(C(=O)Nc4ccccn4)cn3c2)n1 [Compound 1, 6-(6-Aminopyridin-2-yl)-N-(pyridin-2-yl)imidazo[1,2-a]pyridine-2-carboxamide]"
2,1.5,"O=C(Nc1ccccn1)c1cn2cc(-c3c[nH]cn3)ccc2n1 [Compound 2, 6-(1H-Imidazol-4-yl)-N-(pyridin-2-yl)imidazo[1,2-a]pyridine-2-carboxamide]"
3,0.8,O=C(Nc1nccs1)c1cn2cc(-c3ccccn3)ccc2n1 [Compound 7]
4,21,"O=C(Nc1cc[nH]n1)c1cn2cc(-c3ccccn3)ccc2n1 [Compound 10, N-(1H-Pyrazol-3-yl)-6-(pyridin-2-yl)imidazo[1,2-a]pyridine-2-carboxamide]"
5,2,"O=C(Nc1ccon1)c1cn2cc(-c3ccc(CO)o3)ccc2n1 [Compound 22, 6-[5-(Hydroxymethyl)furan-2-yl]-N-(isoxazol-3-yl)imidazo[1,2-a]pyridine-2-carboxamide]"
6,0.4,"O=C(Nc1cccc(F)n1)c1cn2cc(-c3ccoc3)ccc2n1 [Compound 36, N-(6-Fluoropyridin-2-yl)-6-(furan-3-yl)imidazo[1,2-a]pyridine-2-carboxamide]"
7,1.5,"O=C(Nc1nncs1)c1cn2cc(-c3cc[nH]c3)ccc2n1 [Compound 51, 6-(1H-Pyrrol-3-yl)-N-(1,3,4-thiadiazol-2-yl)imidazo[1,2-a]pyridine-2-carboxamide]"
8,1,"O=C(Nc1nccs1)c1cn2cc(-c3cc[nH]n3)ccc2n1 [Compound 56, 6-(1H-Pyrazol-3-yl)-N-(thiazol-2-yl)imidazo[1,2-a]pyridine-2-carboxamide]"
9,5.3,"O=C(Nc1nncs1)c1cn2cc(-c3cc[nH]n3)ccc2n1 [Compound 58, 6-(1H-Pyrazol-3-yl)-N-(1,3,4-thiadiazol-2-yl)imidazo[1,2-a]pyridine-2-carboxamide]"
